According to patent US20200237800A1, “METHODS AND COMPOSITIONS FOR THE TREATMENT OF INFLAMMATORY DISEASE” (THE BRIGHAM AND WOMEN'S HOSPITAL, INC., priority 2017, published 2020):
Strand notation (5' to 3'): a small letter for the sugar, then the base; units joined by * are phosphorothioate-linked, units joined directly phosphodiester-linked; [ ] holds rarer units or linkages, { } end groups; capitals alone tell only the bases. d = 2'-deoxy (DNA); m = 2'-O-methyl; r = 2'-OH (RNA)

Tests used:
[1] = test system: human PBMC-derived macrophages; experiment: Cytokine/chemokine mRNA (RT-PCR) and protein (ELISA) in LPS-activated human PBMC-derived macrophages after lnc-FAM164A1 silencing; format: cell-based; conditions: for TNF-α mRNA: FIG. 11E
Description: (§1) Silencing of lnc-FAM164A1 by antisense and si-RNA oligonucleotides on human PBMC-derived macrophages. Lnc-FAM164A1 RNA silencing was performed on human PBMC-derived macrophagesas using SilenceMag (BOCA Scientific, Boca Raton, Fla.) at final concentration of 50-100 nM.32 36-48 hours after transfection, macrophages were stimulated by 10 ng/mL LPS for 2-6 hours before collection of macrophages and cell culture medium. Anti-sense LNATM long RNA GepmeR oligonucleotides target lnc-FAM164A1 (Sequence 5′-GGTAAGAAATAGGTTG-3′(SEQ ID NO: 52)) and nonspecific negative control oligonucleotides (Sequence 5′-AACACGTCTATACGC-3′(SEQ ID NO: 53)) were designed by Exiqon A/S (Vedbaek, Denmark). Si-RNA Oligonucleotides targeting lnc-FAM164A1 and luciferase control siRNA oligos were designed by Axolabs (Kulmback, Germany). Their sequences and chemical modifications are as follows (A, G, U, C: RNA nucleotide; a, g, u, c: 2′-O-methyl-nucleotide, s: Phosphorothioate, dT: desoxy-T residue): Luciferase control siRNA (XD-00194): Sense strand: 5′-cuuAcGcuGAGuAcuucGAdTsdT-3′ (SEQ ID NO: 54); Antisense strand: 5′-UCGAAGuACUcAGCGuAAGdTsdT-3′ (SEQ ID NO: 4). Lnc-FAM164A1 specific siRNA oligo#5 (XD-05325): 5′-ucAccAuuAucuucAuAcudTsdT-3′(SEQ ID NO: 5) Antisense strand: 5′-AGuAUGAAGAuAAUGGUGAdTsdT-3′ (SEQ ID NO: 6). Lnc-FAM164A1 specific siRNA oligo#8 (XD-05328): 5′-uguGcuAAAAuAcuGAGAudTsdT-3′ (SEQ ID NO: 7); Antisense strand: 5′-AUCUcAGuAUUUuAGcAcAdTsdT-3′ (SEQ ID NO: 8).
(§2) RNA extraction and RT-PCR. Total RNA were extracted using an Illustra RNAspin Mini kit (GE Healthcare, Piscataway, N.J.) and the genomic DNA was removed by on-column DNase I digestion at RT for 15 minutes. cDNAs were synthesized using a high capacity cDNA reverse transcription kit (Applied Biosystems, Carlsbad, Calif.). Real-time PCR was performed on a 7900HT fast real-time PCR system (Applied Biosystems). Taqman probe and primers for lnc-FAM164A1 were designed by Integrated DNA Technologies and listed as follows: Probe: 5′-/56-FAM/ATGG CCTCA/ZEN/GTTAGGACTGCTTGG/3IABkFQ/-3′ (SEQ ID NO: 9); Primer1: 5′-GATGGGTGC TGGGAGTATAAG-3′ (SEQ ID NO: 10); Primer2: 5′-[…]-3′ (SEQ ID NO: 11). Other Taqman probes for IL-1β, IL-6, IL-10, CCL2, TNF-α, and GAPDH was purchased from Life Technologies. Relative expression of each gene was normalized by GAPDH.
ELISA. Duoset ELISA kits (R&D systems, Minneapolis, Minn.) were used to detect the levels of cytokines (human and mouse CCL2, IL-6, TNF-α) in culture medium from macrophages or mouse plasma.

lnc-FAM164A1 = experiment: Silencing of lnc-FAM164A1 by antisense and si-RNA oligonucleotides on human PBMC-derived macrophages (RT-PCR); format: cell-based; conditions: for potency of silencing of lnc-FAM164A1: compared among 10 different siRNA oligonucleotides in human macrophages
Description: as §1
RNA extraction and RT-PCR. Total RNA were extracted using an Illustra RNAspin Mini kit (GE Healthcare, Piscataway, N.J.) and the genomic DNA was removed by on-column DNase I digestion at RT for 15 minutes. cDNAs were synthesized using a high capacity cDNA reverse transcription kit (Applied Biosystems, Carlsbad, Calif.). Real-time PCR was performed on a 7900HT fast real-time PCR system (Applied Biosystems). […]

[2] = test system: human PBMC-derived macrophages; experiment: Induction of lnc-FAM164A1 expression in human PBMC-derived macrophages (RT-PCR); format: cell-based; conditions: 10 ng/mL cytokine, 3 hours
Description: FIGS. 1A-1E show LPS treatment increases the expression of lnc-FAM164A1 in human macrophages, PBMCs and white blood cells in humanized Hu-CD34 NSG mice. […] Human PBMC-derived macrophages were stimulated with 10 ng/mL LPS for 3h or 6h (FIG. 1B, P<0.05 LPS vs control; n=5-6 different donors). Human PBMC was isolated from citrated whole blood derived stimulated with 10 ng/mL LPS for 6 hours ex vivo (FIG. 1C, P<0.05 LPS vs control; n=3-4 different donors). Hu-CD34 NSG mice were stimulated with 5 mg/kg of LPS for 6 hours (FIG. 1D, P<0.05, NSG control vs NSG +LPS, n=4 mice per group). Relative fold change of the lnc-FAM164A1 expression was determined by RT-PCR (FIGS. 1B-1D). […]
FIG. 9A-9C show human PBMC-derived macrophages were stimulated with 10 ng/mL human IL-6 and TNF-α for 3 hours. Relative fold change of the lnc-FAM164A1 expression was determined by RT-PCR (P<0.05 LPS vs control; n=3-4 different donors) (FIG. 9A). […] Expression of lnc-FAM164A1 RNA in liver, spleen and lung isolated from the endotoxemic mice was determined by RT-PCR (P<0.05, Spleen vs Lung; n=4 mice per group) (FIG. 9B). […] Lnc-FAM164A1 RNA, IL-1β and GAPDH mRNA expression were determined by RT-PCR and shown as the ratio of nuclear/cytoplasmic in unstimulated macrophages (Left Panel) and LPS-treated macrophages (Right Panel) (n=2 different donors). […]

NF-κB signaling = experiment: NF-κB inhibitor pretreatment of LPS-stimulated PBMC-derived macrophages (RT-PCR); format: cell-based, human; conditions: 3-30 μM, dose-dependent; 30 minutes pretreatment, 10 ng/mL LPS 6 hours
Description: FIGS. 10A and 18B. (FIG. 10A) Time course of lnc-FAM164A1 and cytokines expression in LPS-stimulated PBMC-derived macrophages. Human PBMC-derived macrophages were stimulated with 10 ng/mL LPS for 6, 12 and 24 hours. Lnc-FAM164A1 RNA, IL-1β, IL-6 and TNF-α mRNA expression were determined by RT-PCR and normalized by GAPDH expression. (Representative results of 2 different donors). […] Human PBMC-derived macrophages were pretreated with 3-30 μM […] for 30 minutes before the stimulation with 10 ng/mL LPS for 6 hours. Lnc-FAM164A1 RNA, IL-1β, IL-6 and TNF-α mRNA expression were determined by RT-PCR and normalized by GAPDH expression (Representative data from 2 different donors).
as §2, with “Other Taqman probes for IL-1β, IL-6, IL-10, CCL2, TNF-α, and GAPDH was purchased from Life Technologies. Relative expression of each gene was normalized by GAPDH.” left out

[3] = LPS-stimulated human macrophages

5′-GGTAAGAAATAGGTTG-3′ (LNA gapmer, pattern and linkages not given here) [anti-sense oligonucleotides]
LPS-induced CCL2 mRNA expression and protein release [1, 3]: significant suppressed
LPS-induced IL-6 mRNA expression and protein release [1, 3]: significant suppressed
LPS-induced TNF-α mRNA expression and protein release [1, 3]: significant suppressed
expression of anti-inflammatory cytokine IL-10 ([1]; control and LPS-treated macrophages): no changes
silencing efficacy of lnc-FAM164A1 (lnc-FAM164A1; human macrophages, FIG. 11A): at least 50%

TNF-α
lnc-FAM164A1 expression [2]: increased the expression

IL-6: human IL-6, pro-inflammatory cytokine used as stimulus at 10 ng/mL
lnc-FAM164A1 expression [2]: increased the expression

5′-ucAccAuuAucuucAuAcudTsdT-3′ (sense mUmCrAmCmCrAmUmUrAmUmCmUmUmCrAmUrAmCmUdT*dT; antisense rArGmUrArUrGrArArGrAmUrArArUrGrGrUrGrAdT*dT; siRNA) [#5]
LPS-induced CCL2 mRNA expression and protein release [1, 3]: decreased expression
LPS-induced IL-6 mRNA expression and protein release [1, 3]: decreased expression
TNF-α mRNA [1, 3]: No significant change
potency of silencing of lnc-FAM164A1 (lnc-FAM164A1): higher potency of silencing than the others

5′-uguGcuAAAAuAcuGAGAudTsdT-3′ (sense mUmGmUrGmCmUrArArArAmUrAmCmUrGrArGrAmUdT*dT; antisense rArUrCrUmCrArGmUrArUrUrUmUrArGmCrAmCrAdT*dT; siRNA) [#8]
LPS-induced CCL2 mRNA expression and protein release [1, 3]: decreased expression
LPS-induced IL-6 mRNA expression and protein release [1, 3]: decreased expression
TNF-α mRNA [1, 3]: No significant change
potency of silencing of lnc-FAM164A1 (lnc-FAM164A1): higher potency of silencing than the others

Cc1ccc(S(=O)(=O)/C=C/C#N)cc1 [Bay 11-7802]
transcription of cytokines (IL-1β, IL-6 and TNF-α mRNA) (NF-κB signaling): blocks the transcription
transcription of lnc-FAM164A1 (NF-κB signaling): blocks the transcription
